From article PMC7389528, “Anti-tubercular derivatives of rhein require activation by the monoglyceride lipase Rv0183” (The Cell Surface, 2020)
pIC50: −log10 of the molar value. Converted amounts (≈) assume the structure as drawn. Read-outs that look alike come from different tables or passages of the source.

Tests used:
Mtb H37Rv = experiment: microbe, parasite or virus in culture; type: cell-based; settings: Mycobacterium tuberculosis
Vero cells = experiment: cells; type: cell-based; settings: Chlorocebus sabaeus, MTT, cytotoxicity
[1] = Liver microsome stability assay, mouse; type: in vitro ADME, male CD-1 mouse; settings: MLM, with NADPH, after 30 min, 1 μM compound
Experimental: (§1) The assay was performed with liver microsomes from male CD-1 mouse (Xenotech) and pooled human (Bioreclamation). Compounds HTB-03, HTB-04 and HTB-05 were tested at 1 μM with a final concentration of microsomal protein of 1 mg/mL. The reaction was initiated by the addition of NADPH (1 mM), and samples were incubated for up to […] at 37 °C in a shaking incubator. The reaction was terminated at 0, 5, 15 and 30 min by the addition of ice-cold ACN/MeOH (50:50) spiked with internal standard. Samples were centrifuged at 4000 rpm at 4 °C for 15 min and the supernatants analyzed by LC-MS/MS. The assay evaluated the metabolic stability of compounds by measuring the amount of parent remaining to test compounds with or without NADPH cofactor. LC-MS/MS: AB Sciex 4500 Qtrap; Kinetex 2.6 μm C18 100 Å column (3.0 mm × 30 mm); mobile phase A, 0.1% formic acid in H2O; mobile phase B, 0.1% formic acid in ACN; flow rate, 0.8 mL/min; room temperature.

[2] = Liver microsome stability assay, human; type: in vitro ADME; settings: HLM, with NADPH, after 30 min, 1 μM compound
Experimental: as §1

[3] = 50 mM Tris pH 7.5, 200 mM NaCl, no enzyme, 37 °C, 1 h
[4] = 50 mM Tris pH 7.5, 200 mM NaCl, 2% DMSO
Mtb = system: Mtb; design: method as in Gajadeera et al., 2015; settings: ref Gajadeera et al., 2015, cited from earlier work

Row | SMILES | MIC (Mtb H37Rv) | pIC50 (Vero cells) | Substrate remaining [1] | Substrate remaining [2] | stability in the assay conditions (TLC) [3] | solubility in the assay conditions [4] | anti-tubercular activity (Mtb) | anti-tubercular activity (Mtb; listed as rhein)
1 | O=C(OCCCCCl)c1cc(O)c2c(c1)C(=O)c1cccc(O)c1C2=O [HTB-03] | 2.56 µM (≈ 0.959 µg/mL) | < 3.77 | 66.3% | 92.8% | appeared stable |  |  | 
2 | CC1CCCC(C)C1OC(=O)c1cc(O)c2c(c1)C(=O)c1cccc(O)c1C2=O (stereo not shown) [HTB-05] | 3.9 µM (≈ 1.54 µg/mL) | < 3.79 | 42.9% | 67.8% |  |  |  | 
3 | COC(=O)c1cc(O)c2c(c1)C(=O)c1cccc(O)c1C2=O [HTB-01] | 6.37 µM (≈ 1.9 µg/mL) | < 3.67 |  |  |  |  |  | 
4 | COC(=O)c1cc(OC(C)=O)c2c(c1)C(=O)c1cccc(OC(C)=O)c1C2=O [HTB-02] | 5.13 µM (≈ 1.96 µg/mL) | 4.81 |  |  |  |  |  | 
5 | CC(=O)Oc1cccc2c1C(=O)c1c(OC(C)=O)cc(C(=O)OCCCCCl)cc1C2=O [HTB-04] | 3.55 µM (≈ 1.63 µg/mL) | 4.08 | 79.8% | 82.4% |  | limited solubility |  | 
6 | NNC(=O)c1ccncc1 [INH, isoniazid, reference compound] | 0.26 µM (≈ 0.0357 µg/mL) |  |  |  |  |  |  | 
7 | CC(=O)Oc1cccc2c1C(=O)c1c(OC(C)=O)cc(C(=O)O)cc1C2=O [Diacerein, diacerein, reference compound] | > 86.9 µM | 3.79 |  |  | degraded to rhein |  |  | 
8 | CC(=O)Oc1cccc2c1C(=O)c1c(OC(C)=O)cc(C(=O)OC3C(C)CCCC3C)cc1C2=O (stereo not shown) [HTB-06] | 7.31 µM (≈ 3.5 µg/mL) | 4.24 |  |  |  |  |  | 
9 | O=C(O)c1cc(O)c2c(c1)C(=O)c1cccc(O)c1C2=O [Rhein, rhein] | 106 µM (≈ 30.2 µg/mL) | 3.74 |  |  |  |  | does not exhibit anti-tubercular activity | does not inhibit Mtb
